Test results as given in patent US8012975B2, “Antitumoral analogs of ET-743” (Pharma Mar, S.A., priority 2000, dated 2011).

How the values were obtained:
P-388 = assay: Cytotoxic activity IC50, P-388; conditions: Mus musculus, P388, read-out: CYTOTOXIC ACTIVITIY IC50 (μM) P-388
HT-29 = assay: Cytotoxic activity IC50, HT-29; conditions: Homo sapiens, HT-29, read-out: CYTOTOXIC ACTIVITIY IC50 (μM) HT-29, HT-29
MEL-28 = assay: Cytotoxic activity IC50, MEL-28; conditions: Homo sapiens, SK-MEL-28, read-out: CYTOTOXIC ACTIVITIY IC50 (μM) MEL-28, MEL-28
DU-145 = assay: Cytotoxic activity IC50, DU-145; conditions: Homo sapiens, DU-145, read-out: CYTOTOXIC ACTIVITIY IC50 (μM) DU-145, DU-145
A-549 = assay: Cytotoxic activity IC50, A-549; conditions: Homo sapiens, A549, read-out: CYTOTOXIC ACTIVITIY IC50 (μM) A-549, A-549

Row | Structure (SMILES) | IC50 (P-388) | IC50 (HT-29) | IC50 (MEL-28) | IC50 (DU-145) | IC50 (A-549)
1 | C=CCOC(=O)Oc1c(C)c2c(c3c1CC1[C@H]4c5c(cc(C)c(OC)c5O)C[C@@H]([C@H](C#N)N1[C@H]3CN)N4C)OCO2 (some centres unmarked) | 0.06 µM | 0.06 µM | 0.06 µM | 0.06 µM | 0.06 µM
2 | CCCCC(=O)NC[C@H]1c2c(c(OC(C)=O)c(C)c3c2OCO3)CC2[C@H]3c4c(cc(C)c(OC)c4O)C[C@@H]([C@H](C#N)N21)N3C (some centres unmarked) | 0.007 µM | 0.007 µM | 0.007 µM | 0.007 µM | 0.007 µM
3 | COc1c(C)cc2c(c1O)[C@@H]1C3Cc4c(OC(C)=O)c(C)c5c(c4[C@H](CNC(=O)c4cccnc4Cl)N3[C@@H](C#N)[C@H](C2)N1C)OCO5 (some centres unmarked) | – | – | – | – | 0.00015 µM
4 | CCCCCC(=O)Oc1c(OC)c(C)cc2c1[C@@H]1C3Cc4c(OC(C)=O)c(C)c5c(c4[C@H](CNC(=O)C(C)NC(=O)CCc4ccccc4)N3[C@@H](C#N)[C@H](C2)N1C)OCO5 (some centres unmarked) | – | 0.06 µM | – | – | 0.06 µM
5 | COc1c(C)cc2c(c1O)[C@@H]1C3Cc4c(OC(=O)CCl)c(C)c5c(c4[C@H](CNC(=O)CCc4ccccc4)N3[C@@H](C#N)[C@H](C2)N1C)OCO5 (some centres unmarked) | 0.001 µM | 0.001 µM | 0.001 µM | 0.001 µM | 0.001 µM
6 | C=CCNC[C@H]1c2c(c(OC(C)=O)c(C)c3c2OCO3)CC2[C@H]3c4c(cc(C)c(OC)c4O)C[C@@H]([C@H](C#N)N21)N3C (some centres unmarked) | – | 0.0018 µM | – | – | 0.0018 µM
7 | COc1c(C)cc2c(c1OC(C)=O)[C@@H]1C3Cc4c(OC(C)=O)c(C)c5c(c4[C@H](CNC(=O)[C@@H](C)N(C(C)=O)C(=O)C(F)(F)F)N3[C@@H](C#N)[C@H](C2)N1C)OCO5 (some centres unmarked) | – | 0.12 µM | – | – | 0.12 µM
8 | CCCC(=O)Oc1c(OC)c(C)cc2c1[C@@H]1C3Cc4c(OC(C)=O)c(C)c5c(c4[C@H](CNC(=O)C(C)NC(=O)CCc4ccccc4)N3[C@@H](C#N)[C@H](C2)N1C)OCO5 (some centres unmarked) | – | 0.012 µM | – | – | 0.012 µM
9 | C=CCOc1c(C)c2c(c3c1CC1[C@H]4c5c(cc(C)c(OC)c5OCOC)C[C@@H]([C@H](C#N)N1[C@H]3COC(=O)CCC)N4C)OCO2 (some centres unmarked) | > 1 µM | > 1 µM | > 1 µM | > 1 µM | > 1 µM
10 | COCOc1c(OC)c(C)cc2c1[C@@H]1C3Cc4c(OC(C)=O)c(C)c5c(c4[C@H](COC(=O)CCc4ccccc4)N3[C@@H](C#N)[C@H](C2)N1C)OCO5 (some centres unmarked) | 0.1 µM | 0.1 µM | 0.1 µM | 0.1 µM | 0.1 µM
11 | COc1c(C)cc2c(c1O)[C@@H]1C3Cc4c(OC(C)=O)c(C)c5c(c4[C@H](CNC(=O)[C@H](C)NC(=O)[C@@H](NC(=O)OCc4ccccc4)C(C)C)N3[C@@H](C#N)[C@H](C2)N1C)OCO5 (some centres unmarked) | 0.01 µM | 0.01 µM | 0.01 µM | 0.01 µM | 0.01 µM
12 | COC1=C(C)C(=O)C2=C(C1=O)[C@H](CNC(=O)[C@H](C)NC(C)=O)N1C(C2)[C@H]2c3c(cc(C)c(OC)c3O)C[C@@H]([C@@H]1C#N)N2C (some centres unmarked) | 0.08 µM | 0.08 µM | 0.08 µM | 0.08 µM | 0.08 µM
13 | COc1c(C)cc2c(c1O)[C@@H]1C3Cc4c(OC(C)=O)c(C)c5c(c4[C@H](CNC(=O)[C@@H](C)NC(=O)CC(C)C)N3[C@@H](O)[C@H](C2)N1C)OCO5 (some centres unmarked) | 0.001 µM | 0.001 µM | 0.001 µM | 0.001 µM | 0.001 µM
14 | COCOc1c(OC)c(C)cc2c1[C@@H]1C3Cc4c(OC(C)=O)c(C)c5c(c4[C@H](COC(=O)/C=C/c4cccc(C(F)(F)F)c4)N3[C@@H](C#N)[C@H](C2)N1C)OCO5 (some centres unmarked) | 0.6 µM | 0.6 µM | 0.6 µM | 0.6 µM | 0.6 µM
15 | C=CCOc1c(C)c2c(c3c1CC1[C@H]4c5c(cc(C)c(OC)c5O)C[C@@H]([C@H](C#N)N1[C@H]3COC(=O)/C=C/c1ccccc1)N4C)OCO2 (some centres unmarked) | – | 0.0015 µM | – | – | 0.0015 µM
16 | COc1c(C)cc2c(c1O)[C@@H]1C3Cc4c(OC(=O)C(F)(F)F)c(C)c5c(c4[C@H](CNC(=O)CCc4ccccc4)N3[C@@H](C#N)[C@H](C2)N1C)OCO5 (some centres unmarked) | 0.01 µM | 0.01 µM | 0.01 µM | 0.01 µM | 0.01 µM
17 | COc1c(C)cc2c(c1O)[C@@H]1C3Cc4c(OC(C)=O)c(C)c5c(c4[C@H](CNC(=O)[C@H](Cc4c[nH]c6ccccc46)NC(=O)OC(C)(C)C)N3[C@@H](O)[C@H](C2)N1C)OCO5 (some centres unmarked) | – | – | – | – | 0.012 µM
18 | C=CCOC(=O)Oc1c(C)c2c(c3c1CC1[C@H]4c5c(cc(C)c(OC)c5OCOC)C[C@@H]([C@H](C#N)N1[C@H]3CNC(=O)[C@H](C)NC(=O)OC(C)(C)C)N4C)OCO2 (some centres unmarked) | 0.06 µM | 0.06 µM | 0.06 µM | 0.06 µM | 0.06 µM
19 | COCOc1c(OC)c(C)cc2c1[C@@H]1C3Cc4c(OC(=O)CCl)c(C)c5c(c4[C@H](CNC(=O)CCc4ccccc4)N3[C@@H](C#N)[C@H](C2)N1C)OCO5 (some centres unmarked) | 0.1 µM | 0.1 µM | 0.1 µM | 0.1 µM | 0.1 µM
20 | COc1c(C)cc2c(c1O)[C@@H]1C3Cc4c(OC(C)=O)c(C)c5c(c4[C@H](CNC(=O)CC4CCCCC4)N3[C@@H](C#N)[C@H](C2)N1C)OCO5 (some centres unmarked) | – | – | – | – | 0.0015 µM

Row | Structure (SMILES) | IC50 (P-388) | IC50 (HT-29) | IC50 (MEL-28) | IC50 (DU-145) | IC50 (A-549)
21 | COc1c(C)cc2c(c1O)[C@@H]1C3Cc4c(OC(C)=O)c(C)c5c(c4[C@H](CNC(=O)[C@H](Cc4ccccc4)NC(=O)OC(C)(C)C)N3[C@@H](C#N)[C@H](C2)N1C)OCO5 (some centres unmarked) | – | 0.0013 µM | – | – | 0.0013 µM
22 | COc1c(C)cc2c(c1O)[C@@H]1C3Cc4c(OC(C)=O)c(C)c5c(c4[C@H](CNC(=O)[C@@H](NC(=O)OC(C)(C)C)C(C)C)N3[C@@H](C#N)[C@H](C2)N1C)OCO5 (some centres unmarked) | – | 0.007 µM | – | – | 0.007 µM
23 | COc1c(C)cc2c(c1O)[C@@H]1C3Cc4c(OC(C)=O)c(C)c5c(c4[C@H](CNC(=O)CCC4CCCCC4)N3[C@@H](C#N)[C@H](C2)N1C)OCO5 (some centres unmarked) | – | – | – | – | 0.0015 µM
24 | COc1c(C)cc2c(c1O)[C@@H]1C3Cc4c(OC(C)=O)c(C)c5c(c4[C@H](CNC(=O)[C@@H]4CCCN4C(=O)OC(C)(C)C)N3[C@@H](C#N)[C@H](C2)N1C)OCO5 (some centres unmarked) | – | 0.014 µM | – | – | 0.014 µM
25 | COc1c(C)cc2c(c1OC(=O)CCC1CCCCC1)[C@@H]1C3Cc4c(OC(C)=O)c(C)c5c(c4[C@H](CNC(=O)CCC4CCCCC4)N3[C@@H](C#N)[C@H](C2)N1C)OCO5 (some centres unmarked) | – | – | – | – | 0.12 µM
26 | COc1c(C)cc2c(c1OC(C)=O)[C@@H]1C3Cc4c(OC(C)=O)c(C)c5c(c4[C@H](CNC(=O)[C@@H](C)NC(=O)C(F)(F)F)N3[C@@H](C#N)[C@H](C2)N1C)OCO5 (some centres unmarked) | – | 0.013 µM | – | – | 0.013 µM
27 | COCOc1c(OC)c(C)cc2c1[C@@H]1C3Cc4c(OC(C)=O)c(C)c5c(c4[C@H](COC(=O)/C=C/c4ccccc4)N3[C@@H](C#N)[C@H](C2)N1C)OCO5 (some centres unmarked) | 0.01 µM | – | – | – | –
28 | CCCC(=O)Oc1c(OC)c(C)cc2c1[C@@H]1C3Cc4c(OC(C)=O)c(C)c5c(c4[C@H](CNC(=O)[C@H](C)NC(=O)C(F)(F)F)N3[C@@H](C#N)[C@H](C2)N1C)OCO5 (some centres unmarked) | – | 0.13 µM | – | – | 0.13 µM
29 | COCOc1c(OC)c(C)cc2c1[C@@H]1C3CC4C(=O)C(C)=C5OCOC5=C4[C@H](COC(=O)/C(CSCC4c5ccccc5-c5ccccc54)=N/OC)N3[C@@H](C#N)[C@H](C2)N1C (some centres unmarked) | – | > 1 µM | – | – | > 1 µM
30 | CCCCCC(=O)Oc1c(OC)c(C)cc2c1[C@@H]1C3Cc4c(OC(C)=O)c(C)c5c(c4[C@H](CNC(=O)[C@H](C)NC(=O)C(F)(F)F)N3[C@@H](C#N)[C@H](C2)N1C)OCO5 (some centres unmarked) | – | 0.012 µM | – | – | 0.012 µM
31 | COc1c(C)cc2c(c1OC(=O)CC1CCCCC1)[C@@H]1C3Cc4c(OC(C)=O)c(C)c5c(c4[C@H](CNC(=O)CC4CCCCC4)N3[C@@H](C#N)[C@H](C2)N1C)OCO5 (some centres unmarked) | – | – | – | – | 0.013 µM
32 | CCCC(=O)Oc1c(OC)c(C)cc2c1[C@@H]1C3Cc4c(OC(C)=O)c(C)c5c(c4[C@H](CNC(=O)CCc4ccccc4)N3[C@@H](C#N)[C@H](C2)N1C)OCO5 (some centres unmarked) | – | 0.0014 µM | – | – | 0.0014 µM
33 | COc1c(C)cc2c(c1O)[C@@H]1C3Cc4c(OC(C)=O)c(C)c5c(c4[C@H](CNC(=O)c4cccnc4Cl)N3[C@@H](O)[C@H](C2)N1C)OCO5 (some centres unmarked) | – | – | – | – | 0.00015 µM
34 | C=CCOC1C(C)=C2OCOC2=C2C1CC1[C@H]3c4c(cc(C)c(OC)c4OCOC)C[C@@H]([C@H](C#N)N1[C@H]2COC(=O)/C(=C/SCC1c2ccccc2-c2ccccc21)OCOC)N3C (some centres unmarked) | – | 0.056 µM | – | – | 0.056 µM
35 | CCCC(=O)Oc1c(OC)c(C)cc2c1[C@@H]1C3Cc4c(OC(C)=O)c(C)c5c(c4[C@H](CN(C(=O)CCC)C(=O)[C@H](C)N(C(=O)CCC)C(=O)C(F)(F)F)N3[C@@H](C#N)[C@H](C2)N1C)OCO5 (some centres unmarked) | – | 0.11 µM | – | – | 0.11 µM
36 | CCCCCC(=O)Oc1c(OC)c(C)cc2c1[C@@H]1C3Cc4c(OC(C)=O)c(C)c5c(c4[C@H](CNC(=O)CCc4ccccc4)N3[C@@H](C#N)[C@H](C2)N1C)OCO5 (some centres unmarked) | – | 0.013 µM | – | – | 0.013 µM
37 | COc1c(C)cc2c(c1O)[C@@H]1C3[C@@H]4SCC(=O)C(=O)OC[C@@H](c5c6c(c(C)c(OC(C)=O)c54)OCO6)N3[C@@H](C#N)[C@H](C2)N1C (some centres unmarked) | 0.1 µM | 0.1 µM | 0.1 µM | – | 0.1 µM
38 | COC1=C(C)C(=O)C2=C(C1=O)[C@H](CNC(C)=O)N1C(C2)[C@H]2c3c(cc(C)c(OC)c3O)C[C@@H]([C@@H]1C#N)N2C (some centres unmarked) | 0.005 µM | 0.005 µM | 0.005 µM | – | 0.005 µM
39 | COc1c(C)cc2c(c1O)[C@@H]1C3Cc4c(OC(C)=O)c(C)c5c(c4[C@H](CNC(=O)[C@H](Cc4c[nH]c6ccccc46)NC(=O)OC(C)(C)C)N3[C@@H](C#N)[C@H](C2)N1C)OCO5 (some centres unmarked) | – | 0.00012 µM | – | – | 0.00012 µM
